No end group written: not given here. Some results are limits rather than exact numbers.

Common to all, as to format: cell-based
In one data set the test system is human PBMC. Nature of the data set: ELISA of IL-32-induced TNF-α and IL-1β production in PBMC (ex-vivo). The settings on record: for Effect on IL-32 induced pro-inflammatory protein production (FIG. 21 legend): peripheral blood mononuclear cells; for Effect on IL-32-induced TNF-α production: p<0.05. An excerpt: In order to confirm these activities in a physiologically relevant system, we evaluated the impact of the peptide in an ex-vivo assay using human PBMC, because cells recruited from the circulation are a major component of inflammatory infiltrates. Venous blood was collected from healthy volunteers with informed consent in accordance to a protocol approved by the Institutional Review Board at the University of Manitoba. PBMC was isolated from blood following the teaching of Mookherjee et al. (2009, Systems biology evaluation of immune responses induced by human host defence peptide LL-37 in mononuclear cells. Mol. Biosyst. 5:483-496). PBMC were stimulated with chronic inflammatory cytokine IL-32 (20 ng/ml) in the presence and absence of 5 μM of peptides, LL-37 and its derivatives (Table 7) for 24 hr. The tissue culture supernatants were monitored for the production of pro-inflammatory cytokines TNF-α and IL-1β by ELISA. […] Results shown are an average of four independent biological experiments performed with cells isolated from blood of four different donors ±standard error.

For data set [1], the system named is human monocytic THP-1 cells. The experiment in a line: AHA labeling, affinity purification and iTRAQ quantitative proteomics of nascent proteins. The settings on record: AHA-labeled THP-1 cells, cytokine 10 ng/ml, 4 hr, vs un-stimulated cells. The procedure: (§1) AHA labeling, biotin tagging of nascent proteins, and affinity purification: Cells were washed with warm D-PBS, and cultured in methionine-free, serum-free RPMI media at 37° C. 5% CO2 for 60 min. […] TC supernatants were monitored for the production of IL-8 by ELISA. Metabolic labeling of the cells with AHA reagent in the presence of the cytokine stimulants would result in induced nascent proteins with azide-bearing functional group, thus making them distinct from pool of pre-existing cellular proteins. Also these functional groups were further used to tag the nascent proteins with a biotin-alkyne reagent as follows. The cells were washed with D-PBS, followed by preparing cell lysates in lysis buffer containing 50 mM Tris-HCl, 1% SDS, 250 U/ml of benzonase nuclease and protease and phosphatase inhibitor cocktails (Sigma-Aldrich Canada Inc.). Total protein was estimated in the cell lysates using micro BCA analysis. Equivalent amount of total protein from each sample was acetone precipitated and then treated with Click-iT® Biotin-alkyne reagent (Invitrogen Canada Inc.) per the manufacturer's instructions. The biotin-alkyne reagent thus covalently coupled to the reactive azide group of the AHA-modified proteins was used to subsequently enrich the nascent proteins by affinity purification using Ultralink® Immobilized NeutrAvidin® resin (Ultralink and NeutrAvidin are registered trademarks of Pierce Biotechnology Inc, Rockford, Ill., USA), and the bound proteins were eluted using 6 M guanidinium hydrochloride.
Quantitative proteomics employing isobaric tag for relative and absolute quantitation (iTRAQ): Amine-modifying iTRAQ™ reagents multiplex kit (Applied Biosystems, Foster City, Calif., USA) was employed for relative quantitation of purified nascent proteins. Affinity purified eluates were acetone precipitated at −20° C. overnight. Proteins were dissolved in 20 μl of iTRAQ dissolution buffer (Applied Biosystems) and further processed as per the manufacturer's instructions. Briefly, proteins were reduced and the cysteines blocked using the reagents in kit, followed by digestion of the protein samples with provided trypsin solution overnight at 37° C. […] The contents from each of the iTRAQ reagent-labeled sample was combined together and processed for nanoflow liquid chromatography coupled to tandem mass spectrometry (LC-MS/MS).
The AHA-containing nascent proteins enriched by affinity purification were quantitated using isobaric iTRAQ quantitative proteomics reagents. This was done to identify and estimative the relative abundance of nascent proteins enriched in the cytokine-treated samples compared to un-stimulated cells. […] Samples from four independent experiments were individually examined by LC-MS/MS. Peptides identified with 95% confidence were selected for further analysis. The mass spectrometry data was analyzed using Global Proteome Machine (GPM-http://www.thegpm.org/).

In data set [2] the test system is human monocytic THP-1 cells. Nature of the data set: Cellular cytotoxicity by LDH release.
Description: Human monocytic THP-1 (ATCC® TIB-202; ATCC is a registered trademark of the American Type Culture Collection, Manassas, Va., USA) cells were cultured in RPMI-1640 media containing 2 mM L-glutamine and 1 mM sodium pyruvate (referred to as complete RPMI media from here on), supplemented with 10% (v/v) FBS, and maintained in a humidified incubator at 37° C. and 5% CO2. […] Cellular cytotoxicity was evaluated after 24 hr stimulation with the various stimulants used in this study by monitoring the release of lactate dehydrogenase (LDH) employing a colorimetric detection kit (Roche Diagnostics, Laval, QC, Canada) Human monocytic THP-1 (ATCC® TIB-202) cells and Jurkat T-cell line (ATCC® TIB-152) were cultured in RPMI-1640 media containing 2 mM L-glutamine and 1 mM sodium pyruvate, supplemented with 10% (v/v) FBS, and maintained in a humidified incubator at 37° C. and 5% CO2. […] Cellular cytotoxicity was evaluated after AHA labeling and upon stimulation with the various cytokines for all the cell types used in this study by monitoring the release of lactate dehydrogenase (LDH) employing a colorimetric detection kit (Roche Diagnostics, Laval, QC, Canada).
The test system of data set [3] is Human THP-1 monocytic cells. Nature of the data set: qRT-PCR kinetics of cytokine-induced gene expression of identified candidates. The text has this:
Quantitative real-time PCR (qRT-PCR): RNA was isolated using the Qiagen RNeasy® kit as per the manufacturer's instructions (Rneasy is a registered trademark of Qiagen GmbH, Hilden, Fed. Rep. Germany). Gene expression was subsequently analyzed by qRT-PCR using SuperScript® III Platinum Two-Step qRT-PCR Kit with SYBR Green (SuperScript is a registered trademark of Invitrogen Corp., Carlsbad, Calif., USA), according to the manufacturer's instructions, in the ABI PRISM® 7300 sequence detection system (BI PRISM is a registered trademark of Applera Corp., Foster City, Calif., USA). Fold changes were calculated by the comparative Ct method as taught by Pfaffl (2001) after normalization with 18sRNA.
(Quantitative PCR measures a nucleic acid by following its amplification.)

Data set [4] deals with AHA-labeled human monocytic THP-1 cells. The experiment in a line: ELISA of IL-8 production by AHA-labeled THP-1 cells. The conditions noted are these: 10 ng/ml, 4 hr. The procedure:
as §1, with “The biotin-alkyne reagent thus covalently coupled to the reactive azide group of the AHA-modified proteins was used to subsequently enrich the nascent proteins by affinity purification using Ultralink® Immobilized NeutrAvidin® resin (Ultralink and NeutrAvidin are registered trademarks of Pierce Biotechnology Inc, Rockford, Ill., USA), and the bound proteins were eluted using 6 M guanidinium hydrochloride.” left out
(In general: ELISA stands for enzyme-linked immunosorbent assay.)

Data set [5] concerns Human macrophage-like THP-1 cells. Nature of the data set: ELISA of cytokine/chemokine production in THP-1 tissue culture supernatants. The conditions noted are these: macrophage-like THP-1 cells, IL-32 20 ng/mL, 24 hr. The procedure:
ELISA immunoassay: Tissue culture supernatants were centrifuged at 1500× g for 5-7 min to obtain cell-free samples and the aliquots were stored at −20° C. until further use. Production of chemokine Gro-α was monitored in the tissue culture supernatants by ELISA employing human Gro-α DuoSet (R&D Systems Inc.) as per the manufacturer's instructions. Production of cytokine TNF-α was monitored in the tissue culture supernatants using specific antibody pairs from eBioscience, Inc., and production of IL-8 was monitored using specific antibody pairs from R&D Systems, Inc., as per the manufacturer's instructions. The concentration of the cytokines or chemokines in the tissue culture supernatants was evaluated by establishing a standard curve with serial dilutions of the recombinant human cytokines or chemokines as required.
ELISA immunoassay: Tissue culture supernatants were centrifuged at 1500× g for 5-7 min to obtain cell-free samples and the aliquots were stored at −20° C. until further use. Production of chemokine Gro-α was monitored in the tissue culture supernatants by ELISA employing human Gro-α DuoSet (R&D Systems Inc.) per the manufacturer's instructions. Production of cytokine TNF-α was monitored in the tissue culture supernatants using specific antibody pairs from eBioscience, Inc., and production of IL-8 was monitored using specific antibody pairs from R&D Systems, Inc., per the manufacturers' instructions. The concentrations of the cytokines or chemokines in the tissue culture supernatants were evaluated by establishing a standard curve with serial dilutions of the recombinant human cytokines or chemokines as required.
Impact of cationic peptide LL-37 and its synthetic derivatives on IL-32-induced protein production: Human macrophage-like THP-1 cells were stimulated with IL-32 (20 ng/mL) in the presence and absence of cationic peptide LL-37, tissues culture supernatants were monitored for the production of pro-inflammatory cytokines TNF-α and IL-1β, and chemokines after 24 hr of stimulation. […] As LL-37 suppressed IL-32-mediated pro-inflammatory responses, we also evaluated the impact of LL-37 derived synthetic peptides. […] No studies to data have explored the impact of these peptides in the context of chronic inflammation. […] This provides the data that supports further investigation of these peptide candidates as potential therapeutics for diseases characterized by chronic inflammation.

Data set [6] has as its system human T-cell Jurkat cell line. Nature of the data set: Cellular cytotoxicity by LDH release. The conditions noted are these: human T-cell Jurkat cells. As to the method:
(§2) Where indicated the THP-1 cells were differentiated to plastic-adherent macrophage-like cells by treatment with phorbol 12-myristate 13-acetate (PMA; Sigma-Aldrich Canada, Oakville ON) as taught by Mookherjee et al. (2006). A rabbit synoviocyte cell line HIG-82 (ATCC® CRL-1832) was cultured in Ham's F-12 growth medium containing glutamine supplemented with sodium pyruvate (referred to as complete F-12 media henceforth), containing 10% (v/v) FBS in a humidified incubator at 37° C. and 5% CO2. Confluent HIG-82 cells were trypsinized with 1:3 dilution of 0.5% trypsin-EDTA in Hanks' balanced salt solution. Cellular cytotoxicity was evaluated after AHA labeling and upon stimulation with the various cytokines for all the cell types used in this study by monitoring the release of lactate dehydrogenase (LDH) employing a colorimetric detection kit (Roche Diagnostics, Laval, QC, Canada). Recombinant human cytokines TNF-α and IL-1β were obtained from eBioscience, Inc (San Diego, Calif., USA).
In general terms: Release of lactate dehydrogenase indicates damage to the cell membrane.

The subject of data set [7] is rabbit synovial fibroblast HIG-82 cell line. Nature of the data set: Cellular cytotoxicity by LDH release. The settings on record: HIG-82 synovial fibroblast cell line, within 4 hr. The procedure: as §2
[8] abbreviates: human PBMC, IL-32 20 ng/ml, 5 μM peptide, 24 hr.

“RK-25: LL-37-derived synthetic peptide, SEQ ID NO: 24, RKSKEKIGKEFKRIVQRIKDFLRNL-NH2”: the “Effect on IL-32 induced pro-inflammatory protein production (FIG. 21 legend)” value (“Effect … (FIG. 21 legend)” below) in the data set on human PBMC is recorded as “suppression”.

Regarding “IL-1β: Recombinant human cytokine IL-1β from eBioscience, used as stimulant”, in data set [1], the “Fold Change of nascent protein AIFM1” value is recorded as 1.2 fold, the “Fold Change of nascent protein ALDOA” value turned out to be 1.5 fold, the “Fold Change of nascent protein CALR” value is reported as 1.0 fold and the “Fold Change of nascent protein CAP1” value was 1.9 fold. Besides, in data set [1], the “Fold Change of nascent protein CTPS” value worked out at 1.5 fold, the “Fold Change of nascent protein DDX17” value was determined as 2.2 fold, the “Fold Change of nascent protein EIFA3” value stood at 1.2 fold and the “Fold Change of nascent protein HMGN1” value was determined as 1.5 fold. Besides, in data set [1], the “Fold Change of nascent protein HSPA4” value is reported as 1.1 fold, the “Fold Change of nascent protein LCP1” value is given as 1.5 fold, the “Fold Change of nascent protein PRTN3” value was found to be 0.8 fold and the “Fold Change of nascent protein PSME2” value was 2.3 fold. Also, in data set [1], the “Fold Change of nascent protein PYGL” value was 1.7 fold, the “Fold Change of nascent protein RAB14” value is reported as 1.2 fold, the “Fold Change of nascent protein SEC22B” value is recorded as 1.6 fold and the “Fold Change of nascent protein VDAC3” value came out at 1.1 fold. Besides, the “Cytotoxicity of cytokine treatment (LDH release)” value in data set [2] (AHA-labeled THP-1 cells, cytokine 10 ng/ml, 4 hr, data not shown) is recorded as “not cytotoxic”. In addition, the “Up-regulation of gene expression of PYGL” value in data set [3] is 1.5 fold. The “Up-regulation of gene expression of RAB14 and Eifa3” value in data set [3] (p≦0.01) was not below 1.5 fold. Besides, in data set [4], the “IL-8 production upon IL-1β stimulation compared to cells stimulated with TNF-α” value is listed as “more than 2 fold”. Also, the “Production of IL-8” value in data set [4] (p<0.001) was “significant”.

Turning to “IG-25: LL-37-derived synthetic peptide, SEQ ID NO: 22, IGKEFKRIVQRIKDFLRNLVPRTES-NH2”, in data set [5], the “Effect on IL-32-induced IL-1β production” value was “significantly suppressed”; the “Effect on IL-32-induced TNF-α production” value is “significantly suppressed”; the “Effect on IL-32-induced chemokine production (IL-8, GROα)” value is reported as “did not completely neutralize”. For the same compound, in the data set on human PBMC (setting [8]), the “Suppression of IL-32-induced TNF-α production” value is on record as more than 90% and the “Effect on IL-32-induced TNF-α production” value is recorded as “neutralized”. The “Effect … (FIG. 21 legend)” value with human PBMC was “suppression”.

In the case of `[N-]=[N+]=NCC[C@H](N)C(=O)O` [AHA, L-azidohomoalanine], the “Cytotoxicity of AHA labeling (LDH release)” value in data set [6] is “not cytotoxic”; in data set [7], “cytotoxic”; in data set [2] (human monocytic THP-1 cells), “not cytotoxic”.

In the case of “IG-19: LL-37-derived synthetic peptide, SEQ ID NO: 23, IGKEFKRIVQRIKDFLRNL-NH2”, in data set [5], the “Effect on IL-32-induced IL-1β production” value is on record as “significantly suppressed”; the “Effect on IL-32-induced TNF-α production” value was “significantly suppressed”; the “Effect on IL-32-induced chemokine production (IL-8, GROα)” value was “did not completely neutralize”. Further, in the data set with human PBMC (setting [8]), the “Effect on IL-32-induced IL-1β production” value was “neutralized” and the “Effect on IL-32-induced TNF-α production” value is “neutralized”. In addition, in the data set with human PBMC, the “Effect … (FIG. 21 legend)” value is reported as “suppression”.

Source of the values: US20130123201A1, “MODULATION OF CYTOKINE-INDUCED CHRONIC INFLAMMATORY RESPONSES” (UNIVERSITY OF MANITOBA, priority 2010, published 2013).
